Assay results published in US20120328711A1, “Antimicrobial system for selective, site-activated binding at target sites” (priority 2011, published 2012).

Assay: Peroxide retention after desiccation and rehydration (peroxide check strips)
Type: physicochemical
Conditions: 1 g-10 g extract in 20 ml 35% hydrogen peroxide, heated at 80° C., desiccated to 5 ml, rehydrated; colorimetric strips

For `Oc1ccc(C=Cc2cc(O)cc(O)c2)cc1` [resveratrol, Resveratrol], the peroxide retention capability was “relatively less ability to form stable perhydrates”.
